We go through eleven compounds from patent US10611740B2, “Aryl dihydro-2H-benzo[b][1,4]oxazine sulfonamide and related compounds for use as agonists of RORγ and the treatment of disease” (Lycera Corporation, priority 2015, dated 2020).

For one experiment, the target named is T1, RORγ-LBD (Homo sapiens, UniProt P51449).
T1 construct: made in house; host or cells: SF9 cells (baculovirus)
T1 sequence (P51449 269-508 limits assumed): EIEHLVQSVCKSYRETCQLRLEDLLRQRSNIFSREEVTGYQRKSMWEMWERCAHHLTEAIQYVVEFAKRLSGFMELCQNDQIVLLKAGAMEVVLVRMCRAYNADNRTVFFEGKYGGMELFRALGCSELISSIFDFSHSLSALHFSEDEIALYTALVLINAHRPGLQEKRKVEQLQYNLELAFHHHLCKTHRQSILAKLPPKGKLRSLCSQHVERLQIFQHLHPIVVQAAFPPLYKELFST
Kind of experiment: RORγ-Ligand Binding Domain (LBD) TR-FRET Assay.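 On TR-FRET Assay Max Response: 665/615 nm ratio relative to signal without ursolic acid or compound set at 100.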 Type of experiment: biochemical. The method in brief:
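This TR-FRET coactivator assay pairs baculovirus-expressed His-RORγ-LBD (~3 nM final) with biotin-SRC1 LXXLL peptide at 200 nM final in pH 7.0 Tris/KCl/EDTA/DTT/BSA buffer.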

In the next experiment the target is T2, Gal4-RORγ-LBD (Homo sapiens, UniProt P51449).
T2 construct: expressed in transfected cells; host or cells: HEK-293 cells (pcDNA3.1neo plasmid)
T2 sequence (P51449 269-508 limits assumed): T1 sequence (P51449 269-508 limits assumed)
Kind of experiment: Gal4-RORγ Luciferase Reporter Assay in HEK-293T Cells. It is filed as cell-based. Particulars: HEK-293 cells. The method in brief:
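Luminescence read-out (One-Glo, 10 min RT) after overnight compound exposure at 37 °C in HEK-293 cells carrying Gal4-RORγ-LBD plus a Gal4-luciferase reporter, in the presence of 2 μM ursolic acid. Max Response is the upper plateau from a 4-parameter logistic fit, normalized to untreated signal = 100.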
On the technique in general: A reporter such as luciferase makes a cellular process visible.

The mark [1] stands for this setting: luciferase reporter, with 2 μM ursolic acid.

As a reminder, the EC50 is the concentration that produces a half-maximal response. With `CC(C)(CO)C(=O)NC[C@H]1CN(S(=O)(=O)c2cccc(C(F)(F)F)c2)c2cc(-c3cc(F)ccc3F)ccc2O1` [Compound 30AU, (S)-N-((6-(2,5-difluorophenyl)-4-((3-(trifluoromethyl)phenyl)-sulfonyl)-3,4-dihydro-2H-benzo[b][1,4]oxazin-2-yl)methyl)-3-hydroxy-2,2-dimethylpropanamide], on RORγ-LBD, the EC50 was < 500 nM and the “TR-FRET Assay Max Response” value is recorded as “**** (The symbol “****” indicates a value greater than 200)”. In addition, on Gal4-RORγ-LBD (setting [1]), the EC50 was < 500 nM and the “Gal4-RORγ Assay Max Response” value was “** (The symbol “**” indicates a value in the range of greater than 90 to 150)”.

For `O=C(O)CC[C@H]1CN(S(=O)(=O)c2cccc(C(F)(F)F)c2)c2cc(-c3cccc(OC(F)F)c3)ccc2O1` [Compound 4T, (S)-3-(6-(3-(difluoromethoxy)-phenyl)-4-((3-(trifluoromethyl)-phenyl)sulfonyl)-3,4-dihydro-2H-benzo[b][1,4]oxazin-2-yl)propanoic acid], on RORγ-LBD, the EC50 was < 500 nM and the “TR-FRET Assay Max Response” value was “**** (The symbol “****” indicates a value greater than 200)”. In addition, at Gal4-RORγ-LBD (setting [1]), the EC50 is < 500 nM and the “Gal4-RORγ Assay Max Response” value is listed as “**** (The symbol “****” indicates a value greater than 200)”.

For `O=C(NC[C@H]1CN(S(=O)(=O)c2cccc(C(F)(F)F)c2)c2cc(-c3cc(F)ccc3F)ccc2O1)c1cn[nH]c1` [Compound 30AC, (S)-N-((6-(2,5-difluorophenyl)-4-((3-(trifluoromethyl)phenyl)-sulfonyl)-3,4-dihydro-2H-benzo[b][1,4]oxazin-2-yl)methyl)-1H-pyrazole-4-carboxamide], on RORγ-LBD, the EC50 was < 500 nM and the “TR-FRET Assay Max Response” value is reported as “**** (The symbol “****” indicates a value greater than 200)”. Also, on Gal4-RORγ-LBD (setting [1]), the EC50 lay within 500 to 5000 nM and the “Gal4-RORγ Assay Max Response” value is reported as “* (The symbol “*” indicates a value in the range of 25 to 90)”.

Take `O=C(O)CC[C@H]1CN(S(=O)(=O)c2cccc(C(F)(F)F)c2)c2cc(-c3cccn4ccnc34)ccc2O1` [Compound 4J, (S)-3-(6-(imidazo[1,2-a]pyridin-8-yl)-4-((3-(trifluoromethyl)-phenyl)sulfonyl)-3,4-dihydro-2H-benzo[b][1,4]oxazin-2-yl)propanoic acid]: at RORγ-LBD, the EC50 is < 500 nM and the “TR-FRET Assay Max Response” value was “**** (The symbol “****” indicates a value greater than 200)”. Besides, on Gal4-RORγ-LBD (setting [1]), the EC50 was 500 to 5000 nM and the “Gal4-RORγ Assay Max Response” value was “** (The symbol “**” indicates a value in the range of greater than 90 to 150)”.

As for `COc1cc(F)cc(-c2ccc3c(c2)N(S(=O)(=O)c2cccc(C(F)(F)F)c2)C[C@H](CNC(=O)[C@@](C)(O)C(F)(F)F)O3)c1F` [Compound 30BF, (R)-N-(((S)-6-(2,5-difluoro-3-methoxyphenyl)-4-((3-(trifluoro-methyl)phenyl)sulfonyl)-3,4-dihydro-2H-benzo[b][1,4]-oxazin-2-yl)methyl)-3,3,3-trifluoro-2-hydroxy-2-methylpropanamide], at RORγ-LBD, the EC50 is < 500 nM and the “TR-FRET Assay Max Response” value was “**** (The symbol “****” indicates a value greater than 200)”. At Gal4-RORγ-LBD (setting [1]), the EC50 is < 500 nM and the “Gal4-RORγ Assay Max Response” value is “* (The symbol “*” indicates a value in the range of 25 to 90)”.

For `NS(=O)(=O)CCC(=O)NC[C@H]1CN(S(=O)(=O)c2cccc(C(F)(F)F)c2)c2cc(-c3cc(F)ccc3F)ccc2O1` [Compound 30AL, (S)-N-((6-(2,5-difluorophenyl)-4-((3-(trifluoromethyl)phenyl)-sulfonyl)-3,4-dihydro-2H-benzo[b][1,4]oxazin-2-yl)methyl)-3-sulfamoyl-propanamide], at RORγ-LBD, the EC50 was < 500 nM and the “TR-FRET Assay Max Response” value is listed as “**** (The symbol “****” indicates a value greater than 200)”. In addition, on Gal4-RORγ-LBD (setting [1]), the EC50 was < 500 nM and the “Gal4-RORγ Assay Max Response” value is given as “* (The symbol “*” indicates a value in the range of 25 to 90)”.

For the compound `O=c1[nH]nc(CC[C@H]2CN(S(=O)(=O)c3cccc(C(F)(F)F)c3)c3cc(-c4cncc(C(F)(F)F)c4)ccc3O2)o1` [Compound 28C, (S)-5-(2-(4-((3-(trifluoromethyl)-phenyl)sulfonyl)-6-(5-(trifluoromethyl)pyridin-3-yl)-3,4-dihydro-2H-benzo[b][1,4]oxazin-2-yl)ethyl)-1,3,4-oxadiazol-2(3H)-one], at RORγ-LBD, the EC50 was < 500 nM and the “TR-FRET Assay Max Response” value is “**** (The symbol “****” indicates a value greater than 200)”. At Gal4-RORγ-LBD (setting [1]), the EC50 is < 500 nM and the “Gal4-RORγ Assay Max Response” value is recorded as “* (The symbol “*” indicates a value in the range of 25 to 90)”.

On to `Cn1nccc1-c1ccc2c(c1)N(S(=O)(=O)c1cccc(C(F)(F)F)c1)C[C@H](CCC(=O)O)O2` [Compound 2AR, (S)-3-(6-(1-methyl-1H-pyrazol-5-yl)-4-((3-(trifluoromethyl)-phenyl)sulfonyl)-3,4-dihydro-2H-benzo[b][1,4]oxazin-2-yl)propanoic acid], for which, on RORγ-LBD, the EC50 lay in the range of 500 to 5000 nM and the “TR-FRET Assay Max Response” value is given as “* (The symbol “*” indicates a value in the range of 25 to 90)”. The EC50 on Gal4-RORγ-LBD (setting [1]) was > 10000 nM.

In the case of `Cc1cc(C)cc(-c2ccc3c(c2)N(S(=O)(=O)c2cccc(C(F)(F)F)c2)C[C@H](CC(C)(C)C(=O)O)O3)c1` [Compound 32AS, (S)-3-(6-(3,5-dimethylphenyl)-4-((3-(trifluoromethyl)phenyl)-sulfonyl)-3,4-dihydro-2H-benzo[b][1,4]oxazin-2-yl)-2,2-dimethylpropanoic acid], on RORγ-LBD, the EC50 was < 500 nM and the “TR-FRET Assay Max Response” value is recorded as “** (The symbol “**” indicates a value in the range of greater than 90 to 150)”. On Gal4-RORγ-LBD (2 μM ursolic acid), the EC50 was < 500 nM and the “Gal4-RORγ Assay Max Response” value is recorded as “** (The symbol “**” indicates a value in the range of greater than 90 to 150)”.

Take `O=C(CC[C@H]1CN(S(=O)(=O)c2cccc(C(F)(F)F)c2)c2cc(-c3cccc(Cl)c3)ccc2O1)N1CCS(=O)(=O)CC1` [Compound 23A, (S)-3-(6-(3-chlorophenyl)-4-((3-(trifluoromethyl)phenyl)sulfonyl)-3,4-dihydro-2H-benzo[b][1,4]-oxazin-2-yl)-1-(1,1-dioxidothio-morpholino)propan-1-one]: on RORγ-LBD, the EC50 is < 500 nM and the “TR-FRET Assay Max Response” value is given as “**** (The symbol “****” indicates a value greater than 200)”. In addition, at Gal4-RORγ-LBD (setting [1]), the EC50 was < 500 nM and the “Gal4-RORγ Assay Max Response” value was “** (The symbol “**” indicates a value in the range of greater than 90 to 150)”.

On to `O=C(O)CC[C@H]1CN(S(=O)(=O)c2cccc(C(F)(F)F)c2)c2cc(-c3ccc(Cl)cc3Cl)ccc2O1` [Compound 2AB, (S)-3-(6-(2,4-dichlorophenyl)-4-((3-(trifluoromethyl)phenyl)-sulfonyl)-3,4-dihydro-2H-benzo[b][1,4]oxazin-2-yl)propanoic acid], for which, at RORγ-LBD, the EC50 is < 500 nM and the “TR-FRET Assay Max Response” value is reported as “**** (The symbol “****” indicates a value greater than 200)”. Also, on Gal4-RORγ-LBD (setting [1]), the EC50 is > 10000 nM and the “Gal4-RORγ Assay Max Response” value was “** (The symbol “**” indicates a value in the range of greater than 90 to 150)”.
